Legend:
[1] = system: SF-295 (CNS Cancer); experiment: NCI one dose, SF-295; type: cell-based, human; details: SF-295, 1.00E-5 Molar one dose
How it was run: (§1)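 48 h continuous compound exposure in the NCI 60 human cancer cell line screen, followed by sulforhodamine B measurement of cytotoxicity.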

[2] = system: SK-MEL-2 (Melanoma); experiment: NCI one dose, SK-MEL-2; type: cell-based, human; details: SK-MEL-2, 1.00E-5 Molar one dose
How it was run: (§2)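 Sulforhodamine B protein staining measured cell growth after cells from the NCI 60-line panel were exposed to compound for 48 h.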

[3] = system: IGROV1 (Ovarian Cancer); experiment: NCI one dose, IGROV1; type: cell-based, human; details: IGROV1, 1.00E-5 Molar one dose
How it was run: as §2

[4] = system: ACHN (Renal Cancer); experiment: NCI one dose, ACHN; type: cell-based, human; details: 1.00E-5 Molar one dose
How it was run: as §1

[5] = system: COLO 205 (Colon Cancer); experiment: NCI one dose, COLO 205; type: cell-based, human; details: COLO 205, 1.00E-5 Molar one dose
How it was run: as §2

[6] = system: SF-539 (CNS Cancer); experiment: NCI one dose, SF-539; type: cell-based, human; details: SF-539, 1.00E-5 Molar one dose
How it was run: as §2

[7] = system: CCRF-CEM (Leukemia); experiment: NCI one dose, CCRF-CEM; type: cell-based, human; details: 1.00E-5 Molar one dose
How it was run: as §2

[8] = system: K-562 leukaemia cells; experiment: NCI one dose, K-562; type: cell-based, human; details: K-562, 1.00E-5 Molar one dose
How it was run: as §2

[9] = system: A498 (Renal Cancer); experiment: NCI one dose, A498; type: cell-based, human; details: A498, 1.00E-5 Molar one dose
How it was run: as §2

[10] = system: OVCAR-4 (Ovarian Cancer); experiment: NCI one dose, OVCAR-4; type: cell-based, human; details: OVCAR-4, 1.00E-5 Molar one dose
How it was run: as §2

[11] = system: NCI-H322M (Non-Small Cell Lung Cancer); experiment: NCI one dose, NCI-H322M; type: cell-based, human; details: 1.00E-5 Molar one dose
How it was run: as §2

[12] = system: RXF 393 (Renal Cancer); experiment: NCI one dose, RXF 393; type: cell-based, human; details: RXF 393, 1.00E-5 Molar one dose
How it was run: as §2

[13] = system: SR (Leukemia); experiment: NCI one dose, SR; type: cell-based, human; details: 1.00E-5 Molar one dose
How it was run: as §2

[14] = system: MOLT-4 (Leukemia); experiment: NCI one dose, MOLT-4; type: cell-based, human; details: MOLT-4, 1.00E-5 Molar one dose
How it was run: as §2

[15] = system: OVCAR-5 (Ovarian Cancer); experiment: NCI one dose, OVCAR-5; type: cell-based, human; details: OVCAR-5, 1.00E-5 Molar one dose
How it was run: as §2

[16] = system: NCI-H23 (Non-Small Cell Lung Cancer); experiment: NCI one dose, NCI-H23; type: cell-based, human; details: NCI-H23, 1.00E-5 Molar one dose
How it was run: as §2

[17] = system: UACC-62 (Melanoma); experiment: NCI one dose, UACC-62; type: cell-based, human; details: UACC-62, 1.00E-5 Molar one dose
How it was run: as §2

[18] = system: MALME-3M (Melanoma); experiment: NCI one dose, MALME-3M; type: cell-based, human; details: 1.00E-5 Molar one dose
How it was run: as §1

[19] = system: HCT-116 (Colon Cancer); experiment: NCI one dose, HCT-116; type: cell-based, human; details: HCT-116, 1.00E-5 Molar one dose
How it was run: as §2

[20] = system: A549/ATCC (Non-Small Cell Lung Cancer); experiment: NCI one dose, A549/ATCC; type: cell-based, human; details: 1.00E-5 Molar one dose
How it was run: as §2

[21] = system: HOP-92 (Non-Small Cell Lung Cancer); experiment: NCI one dose, HOP-92; type: cell-based, human; details: HOP-92, 1.00E-5 Molar one dose
How it was run: as §2

[22] = system: HT29 (Colon Cancer); experiment: NCI one dose, HT29; type: cell-based, human; details: HT29, 1.00E-5 Molar one dose
How it was run: as §2

[23] = system: 786-0 (Renal Cancer); experiment: NCI one dose, 786-0; type: cell-based, human; details: 786-0, 1.00E-5 Molar one dose
How it was run: as §2

[24] = system: EKVX (Non-Small Cell Lung Cancer); experiment: NCI one dose, EKVX; type: cell-based, human; details: 1.00E-5 Molar one dose
How it was run: as §2

[25] = system: HS 578T (Breast Cancer); experiment: NCI one dose, HS 578T; type: cell-based, human; details: 1.00E-5 Molar one dose
How it was run: as §2

[26] = system: OVCAR-8 (Ovarian Cancer); experiment: NCI one dose, OVCAR-8; type: cell-based, human; details: OVCAR-8, 1.00E-5 Molar one dose
How it was run: as §1

[27] = system: panel of 60 human cancer cell lines; experiment: NCI 60 cell panel one dose screen (whole panel); type: cell-based; set-up: Delta (One Dose Mean Graph): unit not given here; details: 1.00E-5 Molar one dose; for Range (One Dose Mean Graph): in % (unit assumed); for Mean Growth Percent: mean over tested cell lines
How it was run: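 Single-dose screen at 10 µM across the NCI 60 human cancer cell line panel; 48 h compound exposure with growth measured by sulforhodamine B assay.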

[28] = system: SK-MEL-5 (Melanoma); experiment: NCI one dose, SK-MEL-5; type: cell-based, human; details: SK-MEL-5, 1.00E-5 Molar one dose
How it was run: as §2

[29] = system: SNB-19 (CNS Cancer); experiment: NCI one dose, SNB-19; type: cell-based, human; details: SNB-19, 1.00E-5 Molar one dose
How it was run: as §2

[30] = system: HCT-15 (Colon Cancer); experiment: NCI one dose, HCT-15; type: cell-based, human; details: HCT-15, 1.00E-5 Molar one dose
How it was run: as §2

[31] = system: MDA-MB-231/ATCC (Breast Cancer); experiment: NCI one dose, MDA-MB-231/ATCC; type: cell-based, human; details: 1.00E-5 Molar one dose
How it was run: as §2

[32] = system: M14 (Melanoma); experiment: NCI one dose, M14; type: cell-based, human; details: M14, 1.00E-5 Molar one dose
How it was run: as §2

[33] = system: U251 (CNS Cancer); experiment: NCI one dose, U251; type: cell-based, human; details: U251, 1.00E-5 Molar one dose
How it was run: as §2

SMILES: COc1cccc(CNC(=O)[C@@H]2CS[C@@]3(C)c4ccccc4C(=O)N23)c1 [4bE]
- Growth Percent [1]: 97.61%
- Growth Percent [2]: 97.24%
- Growth Percent [3]: 107.98%
- Growth Percent [4]: 106.16%
- Growth Percent [5]: 115.50%
- Growth Percent [6]: 104.59%
- Growth Percent [7]: 94.80%
- Growth Percent [8]: 82.59%
- Growth Percent [9]: 85.49%
- Growth Percent [10]: 94.52%
- Growth Percent [11]: 102.58%
- Growth Percent [12]: 107.08%
- Growth Percent [13]: 81.22%
- Growth Percent [14]: 85.50%
- Growth Percent [15]: 110.33%
- Growth Percent [16]: 98.91%
- Growth Percent [17]: 91.91%
- Growth Percent [18]: 110.68%
- Growth Percent [19]: 104.89%
- Growth Percent [20]: 76.25%
- Growth Percent [21]: 101.27%
- Growth Percent [22]: 89.19%
- Growth Percent [23]: 105.14%
- Growth Percent [24]: 112.43%
- Growth Percent [25]: 95.18%
- Growth Percent [26]: 90.08%
- Delta (One Dose Mean Graph) [27]: 31.41
- Range (One Dose Mean Graph) [27]: 48.09
- Mean Growth Percent [27]: 98.86%
- Growth Percent [28]: 101.12%
- Growth Percent [29]: 102.99%
- Growth Percent [30]: 102.87%
- Growth Percent [31]: 105.57%
- Growth Percent [32]: 104.58%
- Growth Percent [33]: 100.00%

SMILES: C[C@@]12SC[C@@H](C(=O)NCc3cccc(C(F)(F)F)c3)N1C(=O)c1ccccc12 [4bD]
- Growth Percent [1]: 92.24%
- Growth Percent [2]: 85.25%
- Growth Percent [3]: 99.72%
- Growth Percent [4]: 95.88%
- Growth Percent [5]: 104.27%
- Growth Percent [6]: 99.59%
- Growth Percent [7]: 89.45%
- Growth Percent [8]: 81.47%
- Growth Percent [9]: 85.48%
- Growth Percent [10]: 89.60%
- Growth Percent [11]: 100.14%
- Growth Percent [12]: 105.49%
- Growth Percent [13]: 75.10%
- Growth Percent [14]: 75.84%
- Growth Percent [15]: 104.21%
- Growth Percent [16]: 99.06%
- Growth Percent [17]: 87.82%
- Growth Percent [18]: 99.33%
- Growth Percent [19]: 87.94%
- Growth Percent [20]: 77.57%
- Growth Percent [21]: 88.94%
- Growth Percent [22]: 78.21%
- Growth Percent [23]: 100.40%
- Growth Percent [24]: 98.64%
- Growth Percent [25]: 96.99%
- Growth Percent [26]: 92.35%
- Delta (One Dose Mean Graph) [27]: 25.48
- Range (One Dose Mean Graph) [27]: 41.72
- Mean Growth Percent [27]: 94.41%
- Growth Percent [28]: 101.35%
- Growth Percent [29]: 99.21%
- Growth Percent [30]: 95.74%
- Growth Percent [31]: 97.63%
- Growth Percent [32]: 103.59%
- Growth Percent [33]: 94.94%

From PMC11855478, “Bicyclic N,S-Acetals Containing Fused Cysteine-Amide System as New Heterocyclic Class Targeting Human Farnesyltransferase (FTase-h)” (International Journal of Molecular Sciences, 2025)
